According to patent publication US7767716B2, “Acyl hydrazines as kinase inhibitors, in particular for SGK” (Merck Patent GmbH, priority 2005, dated 2010):
Several values for one entry are separate records, joined by “and”; a condition that tells them apart may be missing. Identical values can stand only once.

Compound	melting point
Cc1cc(O)cc(O)c1C(=O)NNC(=O)Cc1cccc(O)c1 [compound 57]	226 to 227 °C
CCCCCc1cc(O)cc(O)c1C(=O)NNC(=O)Cc1cccc(O)c1 [compound 83]	230 °C
Cc1cc(C(=O)NNC(=O)Cc2cccc(O)c2)c(O)cc1O [compound 87]	240 °C
O=C(Cc1cccc(O)c1)NNC(=O)c1c(O)cc(O)cc1Br [compound 63]	226 to 227 °C
O=C(Cc1cccc(O)c1)NNC(=O)c1c(O)cc(O)cc1Br [compound 73]	259 °C
N#Cc1cc(C(=O)NNC(=O)Cc2cccc(O)c2)c(O)cc1O [compound 86]	258 °C
O=C(Cc1cccc(O)c1)NNC(=O)c1ccc(Br)cc1 [compound 28]	229 °C
O=C(Cc1cccc(O)c1)NNC(=O)c1c(O)cc(O)cc1F [compound 72]	230 to 232 °C
CCCc1cc(O)cc(O)c1C(=O)NNC(=O)Cc1cccc(O)c1 [compound 69]	198 to 200 °C
COc1ccc(CC(=O)NNC(=O)c2c(C)cc(O)cc2O)cc1O [compound 66]	232 to 233 °C
O=C(Cc1cccc(O)c1)NNC(=O)c1cccc([N+](=O)[O-])c1 [compound 20]	179 °C
O=C(Cc1cccc(O)c1)NNC(=O)c1c(O)cc(O)cc1Cl [compound 70, N′-[2-(3-hydroxyphenyl)acetyl]-2-chloro-4,6-dihydroxybenzohydrazide]	217 °C and 213 to 215 °C
O=C(Cc1cccc(O)c1)NNC(=O)c1cc(Cl)c(O)cc1C(F)(F)F [compound 88]	200 to 202 °C
CCc1cc(O)cc(O)c1C(=O)NNC(=O)Cc1cccc(O)c1 [compound 62]	251 °C
O=C(Cc1cccc(O)c1)NNC(=O)c1ccc(SC(F)(F)F)cc1 [compound 46]	165 to 166 °C
Cc1c(O)ccc(C(=O)NNC(=O)Cc2cccc(O)c2)c1C [compound 82]	251 °C
O=C(Cc1cccc(O)c1)NNC(=O)c1cccc(OC(F)(F)F)c1 [compound 48]	256 to 257 °C
O=C(Cc1cccc(O)c1)NNC(=O)c1ccc(O)c([N+](=O)[O-])c1 [compound 74, N′-[2-(3-hydroxyphenyl)acetyl]-4-hydroxy-3-nitrobenzohydrazide]	190 to 193 °C
O=C(Cc1cccc(O)c1)NNC(=O)c1cc([N+](=O)[O-])cc([N+](=O)[O-])c1	248 to 249 °C
O=C(Cc1cccc(O)c1)NNC(=O)c1cccc(C(Cl)Cl)c1 [compound 52]	154 to 155 °C
CC(C)(C)c1cc(C(=O)NNC(=O)Cc2cccc(O)c2)ccc1O [compound 76]	154 to 157 °C
Cc1cc(O)c(C)c(O)c1C(=O)NNC(=O)Cc1cccc(O)c1 [compound 61]	193 to 194 °C
COC(=O)c1ccc(C(=O)NNC(=O)Cc2cccc(O)c2)cc1 [compound 19]	201 to 202 °C
COc1cc(O)cc(Cl)c1C(=O)NNC(=O)Cc1cccc(O)c1 [compound 79]	105 to 106 °C
O=C(Cc1cccc(O)c1)NNC(=O)c1c(O)cc(O)cc1O [compound 68, N′-[2-(3-hydroxyphenyl)acetyl]-2,4,6-trihydroxybenzohydrazide]	237 to 238 °C
Nc1cc(C(=O)NNC(=O)Cc2cccc(O)c2)ccc1O [compound 78, N′-[2-(3-hydroxyphenyl)acetyl]-3-amino-4-hydroxybenzohydrazide]	264 to 265 °C
Cc1cccc(C(=O)NNC(=O)Cc2cccc(O)c2)c1 [compound 18]	156 to 157 °C
N#Cc1cccc(C(=O)NNC(=O)Cc2cccc(O)c2)c1 [compound 39]	181.5 to 182.5 °C
COc1cc(C(=O)NNC(=O)Cc2cccc(O)c2)c([N+](=O)[O-])cc1OC [compound 11]	226 to 227 °C

Continued, values first:

melting point	Compound
158 to 159 °C	COc1ccc(C(=O)NNC(=O)Cc2cccc(O)c2)cc1 [compound 36]
172 °C	O=C(Cc1cccc(O)c1)NNC(=O)c1ccccc1Cl [compound 23]
130 to 132 °C	CCOc1cccc(C(=O)NNC(=O)Cc2cccc(O)c2)c1 [compound 42]
224 to 225 °C	O=C(Cc1cccc(O)c1)NNC(=O)c1cccc(O)c1 [compound 6]
202 to 203 °C	O=C(Cc1cccc(O)c1)NNC(=O)c1ccc(Cl)cc1Cl [compound 25]
199 to 200 °C	CCc1cc(O)ccc1C(=O)NNC(=O)Cc1cccc(O)c1 [compound 60, N′-[2-(3-hydroxyphenyl)acetyl]-2-ethyl-4-hydroxybenzohydrazide]
269 to 270 °C	O=C(Cc1cccc(O)c1)NNC(=O)c1cc(Cl)c(O)cc1O [compound 80]
259 °C	CCc1c(C(=O)NNC(=O)Cc2cccc(O)c2)ccc(O)c1Cl [compound 84]
138 to 139 °C	COc1cccc(C(=O)NNC(=O)Cc2cccc(O)c2)c1 [compound 55]
206 to 207 °C	O=C(Cc1cccc(O)c1)NNC(=O)c1ccccc1[N+](=O)[O-] [compound 49]
199 to 200 °C	O=C(Cc1cccc(O)c1)NNC(=O)c1ccc(OCc2ccccc2)cc1 [compound 2]
148 to 150 °C	CCOc1ccc2ccccc2c1C(=O)NNC(=O)Cc1cccc(O)c1 [compound 45]
165 to 166 °C	Cc1cc(OCc2ccccc2)cc(OCc2ccccc2)c1C(=O)NNC(=O)Cc1cccc(O)c1 [compound 58]
181 to 182 °C	COc1ccccc1C(=O)NNC(=O)Cc1cccc(O)c1 [compound 17]
152 to 153 °C	O=C(Cc1cccc(O)c1)NNC(=O)c1cccc(OCc2ccccc2)c1 [compound 4]
195 to 196 °C	O=C(Cc1cccc(O)c1)NNC(=O)c1ccccc1C(F)(F)F [compound 47]
223 °C	O=C(Cc1cccc(O)c1)NNC(=O)c1ccc(Cl)cc1 [compound 50]
212 to 213 °C	O=C(Cc1cccc(O)c1)NNC(=O)c1cc(Cl)ccc1Br [compound 15]
183 to 184 °C	O=C(Cc1cccc(O)c1)NNC(=O)c1cccc(Cl)c1 [compound 24]
174 to 175 °C	COc1cc(Cl)c(C(=O)NNC(=O)Cc2cccc(O)c2)cc1OC [compound 9]
210 to 211 °C	O=C(Cc1cccc(O)c1)NNC(=O)c1cccc2ccccc12 [compound 34]
190 to 191 °C	O=C(Cc1cccc(O)c1)NNC(=O)c1ccccc1I [compound 27]
230 to 231 °C	O=C(Cc1cccc(O)c1)NNC(=O)c1ccc(O)c(Cl)c1 [compound 77]
197 to 198 °C	COc1ccc(C(=O)NNC(=O)Cc2cccc(O)c2)c(OC)c1 [compound 29]
162 to 164 °C	O=C(Cc1cccc(O)c1)NNC(=O)c1ccc(OCc2ccccc2)cc1Cl [compound 7]
155 to 156 °C	CCc1ccc(C(=O)NNC(=O)Cc2cccc(O)c2)cc1 [compound 44]
220 to 221 °C	O=C(Cc1cccc(O)c1)NNC(=O)c1cccc(Cl)c1Cl [compound 40]
233 to 235 °C	O=C(Cc1cccc(O)c1)NNC(=O)c1ccc(O)cc1O [compound 1]
252 to 253 °C	O=C(Cc1cccc(O)c1)NNC(=O)c1ccc(O)c(Cl)c1O [compound 81]
